{"source": "patent US20100273189A1", "about": "“NON SEPARATION ASSAYS WITH SELECTIVE SIGNAL INHIBITORS” (BECKMAN COULTER, INC., priority 2009, published 2010)", "key": {"CK-MB": {"test_system": "CK-MB", "experiment": "Effect of trigger pH: CK-MB on LodeStars with ascorbate", "type": "biochemical", "protocol": "B. In order to determine the effect of trigger solution pH on a variety of test assay systems, a series of experiments were conducted varying trigger pH. […] In the tables, two pH values are listed for each data set. The first is the pH of the buffer sample added to the reaction mixture. The second is the resulting pH of the final reaction mix."}, "HRP": {"target": "T1, HRP (Armoracia rusticana, UniProt P00433)", "T1 construct": "purchased Roche Diagnostics, Indianapolis, Ind., USA", "T1 sequence (P00433 31-338 limits assumed)": "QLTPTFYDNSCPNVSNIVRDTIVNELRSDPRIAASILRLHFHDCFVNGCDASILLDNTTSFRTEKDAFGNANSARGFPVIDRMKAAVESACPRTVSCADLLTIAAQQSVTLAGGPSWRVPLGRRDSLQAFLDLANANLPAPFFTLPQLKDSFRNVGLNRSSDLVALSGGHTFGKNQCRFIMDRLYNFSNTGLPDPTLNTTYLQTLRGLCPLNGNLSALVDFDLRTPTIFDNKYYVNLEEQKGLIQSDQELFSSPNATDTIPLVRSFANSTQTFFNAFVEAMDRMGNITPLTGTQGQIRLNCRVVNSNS", "experiment": "HRP model system on silica particles, with and without ascorbic acid", "type": "biochemical", "settings": "150 μM Ascorbate; for RLU: replicates", "protocol": "In order to further investigate the effect of specific solid phase particles on the assays described herein, a comparison of a variety of particle types was conducted, including silica, polymethylmethacrylate (PMMA). Carboxyl modified PMMA particles (PolyAn GmbH, Berlin) were labeled with AK and biotin as described in Example 3, followed by coating with streptavidin. Silica particles were reacted with 3-aminopropylsiloxane in 1 mM acetic acid to provide an amine reactive group. The amine functional groups were reacted with AK-3 and biotin-LC-sulfoNHS, followed by coating with streptavidin.\nSignal generation with Silica and PMMA particles. Assays using the HRP model system, as generally described in Example 1, were conducted on silica particles and PMMA particles, with and without ascorbic acid in the reaction mixture. The assays were run on a modified DxI instrument as described above. The assay conditions consisted of combining 45 μL BUFFER II (with or without ascorbic acid), 25 μL of particle suspension, and 15 μL of sample and incubating for 30 min. Then 100 μL of trigger solution A was added to the reaction vessel and the light intensity was recorded."}, "[1]": {"settings": "Control (7.0), S1, CK-MB 3200 ng/ml"}, "[2]": {"settings": "Control (7.0), S2, CK-MB 9150 ng/ml"}, "[3]": {"settings": "Control (7.0), S3, CK-MB 26300 ng/ml"}, "[4]": {"settings": "Control (7.0), S4, CK-MB 94600 ng/ml"}, "[5]": {"settings": "Control (7.0), S5, CK-MB 268750 ng/ml"}, "[6]": {"settings": "pH 6.0 (5.9), S1, CK-MB 3200 ng/ml"}, "[7]": {"settings": "pH 6.0 (5.9), S2, CK-MB 9150 ng/ml"}, "[8]": {"settings": "pH 6.0 (5.9), S3, CK-MB 26300 ng/ml"}, "[9]": {"settings": "pH 6.0 (5.9), S4, CK-MB 94600 ng/ml"}, "[10]": {"settings": "pH 6.0 (5.9), S5, CK-MB 268750 ng/ml"}, "[11]": {"settings": "pH 7.0 (6.8), S1, CK-MB 3200 ng/ml"}, "[12]": {"settings": "pH 7.0 (6.8), S2, CK-MB 9150 ng/ml"}, "[13]": {"settings": "pH 7.0 (6.8), S3, CK-MB 26300 ng/ml"}, "[14]": {"settings": "pH 7.0 (6.8), S4, CK-MB 94600 ng/ml"}, "[15]": {"settings": "pH 7.0 (6.8), S5, CK-MB 268750 ng/ml"}, "[16]": {"settings": "pH 8.0 (7.8), S1, CK-MB 3200 ng/ml"}, "[17]": {"settings": "pH 8.0 (7.8), S2, CK-MB 9150 ng/ml"}, "[18]": {"settings": "pH 8.0 (7.8), S3, CK-MB 26300 ng/ml"}, "[19]": {"settings": "pH 8.0 (7.8), S4, CK-MB 94600 ng/ml"}, "[20]": {"settings": "pH 8.0 (7.8), S5, CK-MB 268750 ng/ml"}, "[21]": {"settings": "pH 9.0 (8.6), S1, CK-MB 3200 ng/ml"}, "[22]": {"settings": "pH 9.0 (8.6), S2, CK-MB 9150 ng/ml"}, "[23]": {"settings": "pH 9.0 (8.6), S3, CK-MB 26300 ng/ml"}, "[24]": {"settings": "pH 9.0 (8.6), S4, CK-MB 94600 ng/ml"}, "[25]": {"settings": "pH 9.0 (8.6), S5, CK-MB 268750 ng/ml"}}, "note": "Values joined by “and” are separate entries in the source; they are usually repeats but may differ in a detail not shown here. Equal values may be shown once.", "data": [{"smiles": "O=C1O[C@H]([C@@H](O)CO)C(O)=C1O", "note": "[Ascorbic Acid, Ascorbic acid]", "values": [{"measurement": "Mean RLU", "setting": "CK-MB; Control (7.0), S0, CK-MB 600 ng/ml", "value": "1,837 RLU"}, {"measurement": "Mean RLU", "setting": "CK-MB; [1]", "value": "7,380 RLU"}, {"measurement": "S/S0", "setting": "CK-MB; [1]", "value": 4.0}, {"measurement": "Mean RLU", "setting": "CK-MB; [2]", "value": "22,931 RLU"}, {"measurement": "S/S0", "setting": "CK-MB; [2]", "value": 12.5}, {"measurement": "Mean RLU", "setting": "CK-MB; [3]", "value": "75,857 RLU"}, {"measurement": "S/S0", "setting": "CK-MB; [3]", "value": 41.3}, {"measurement": "Mean RLU", "setting": "CK-MB; [4]", "value": "427,483 RLU"}, {"measurement": "S/S0", "setting": "CK-MB; [4]", "value": 232.7}, {"measurement": "Mean RLU", "setting": "CK-MB; [5]", "value": "2,055,748 RLU"}, {"measurement": "S/S0", "setting": "CK-MB; [5]", "value": 1118.9}, {"measurement": "Mean RLU", "setting": "CK-MB; pH 6.0 (5.9), S0, CK-MB 600 ng/ml", "value": 693, "unit": "RLU"}, {"measurement": "Mean RLU", "setting": "CK-MB; [6]", "value": "2,849 RLU"}, {"measurement": "S/S0", "setting": "CK-MB; [6]", "value": 4.1}, {"measurement": "Mean RLU", "setting": "CK-MB; [7]", "value": "6,812 RLU"}, {"measurement": "S/S0", "setting": "CK-MB; [7]", "value": 9.8}, {"measurement": "Mean RLU", "setting": "CK-MB; [8]", "value": "28,129 RLU"}, {"measurement": "S/S0", "setting": "CK-MB; [8]", "value": 40.6}, {"measurement": "Mean RLU", "setting": "CK-MB; [9]", "value": "119,144 RLU"}, {"measurement": "S/S0", "setting": "CK-MB; [9]", "value": 171.8}, {"measurement": "Mean RLU", "setting": "CK-MB; [10]", "value": "754,177 RLU"}, {"measurement": "S/S0", "setting": "CK-MB; [10]", "value": 1087.8}, {"measurement": "Mean RLU", "setting": "CK-MB; pH 7.0 (6.8), S0, CK-MB 600 ng/ml", "value": "1,788 RLU"}, {"measurement": "Mean RLU", "setting": "CK-MB; [11]", "value": "8,409 RLU"}, {"measurement": "S/S0", "setting": "CK-MB; [11]", "value": 4.7}, {"measurement": "Mean RLU", "setting": "CK-MB; [12]", "value": "22,669 RLU"}, {"measurement": "S/S0", "setting": "CK-MB; [12]", "value": 12.7}, {"measurement": "Mean RLU", "setting": "CK-MB; [13]", "value": "84,704 RLU"}, {"measurement": "S/S0", "setting": "CK-MB; [13]", "value": 47.4}, {"measurement": "Mean RLU", "setting": "CK-MB; [14]", "value": "370,193 RLU"}, {"measurement": "S/S0", "setting": "CK-MB; [14]", "value": 207.0}, {"measurement": "Mean RLU", "setting": "CK-MB; [15]", "value": "2,084,173 RLU"}, {"measurement": "S/S0", "setting": "CK-MB; [15]", "value": 1165.6}, {"measurement": "Mean RLU", "setting": "CK-MB; pH 8.0 (7.8), S0, CK-MB 600 ng/ml", "value": "3,263 RLU"}, {"measurement": "Mean RLU", "setting": "CK-MB; [16]", "value": "15,725 RLU"}, {"measurement": "S/S0", "setting": "CK-MB; [16]", "value": 4.8}, {"measurement": "Mean RLU", "setting": "CK-MB; [17]", "value": "42,805 RLU"}, {"measurement": "S/S0", "setting": "CK-MB; [17]", "value": 13.1}, {"measurement": "Mean RLU", "setting": "CK-MB; [18]", "value": "150,140 RLU"}, {"measurement": "S/S0", "setting": "CK-MB; [18]", "value": 46.0}, {"measurement": "Mean RLU", "setting": "CK-MB; [19]", "value": "788,451 RLU"}, {"measurement": "S/S0", "setting": "CK-MB; [19]", "value": 241.7}, {"measurement": "Mean RLU", "setting": "CK-MB; [20]", "value": "4,618,668 RLU"}, {"measurement": "S/S0", "setting": "CK-MB; [20]", "value": 1415.6}, {"measurement": "Mean RLU", "setting": "CK-MB; pH 9.0 (8.6), S0, CK-MB 600 ng/ml", "value": "1,512 RLU"}, {"measurement": "Mean RLU", "setting": "CK-MB; [21]", "value": "9,508 RLU"}, {"measurement": "S/S0", "setting": "CK-MB; [21]", "value": 6.3}, {"measurement": "Mean RLU", "setting": "CK-MB; [22]", "value": "28,387 RLU"}, {"measurement": "S/S0", "setting": "CK-MB; [22]", "value": 18.8}, {"measurement": "Mean RLU", "setting": "CK-MB; [23]", "value": "74,359 RLU"}, {"measurement": "S/S0", "setting": "CK-MB; [23]", "value": 49.2}, {"measurement": "Mean RLU", "setting": "CK-MB; [24]", "value": "561,103 RLU"}, {"measurement": "S/S0", "setting": "CK-MB; [24]", "value": 371.1}, {"measurement": "Mean RLU", "setting": "CK-MB; [25]", "value": "3,286,012 RLU"}, {"measurement": "S/S0", "setting": "CK-MB; [25]", "value": 2173.3}, {"measurement": "Mean RLU", "setting": "HRP; HRP 0 ng/ml", "value": 263, "unit": "RLU"}, {"measurement": "S/S0", "setting": "HRP; HRP 0 ng/ml", "value": 1.0}, {"measurement": "RLU", "setting": "HRP; HRP 0 ng/ml", "value": "256 RLU and 260 RLU and 272 RLU"}, {"measurement": "Mean RLU", "setting": "HRP; HRP 1 ng/ml", "value": "6,988 RLU"}, {"measurement": "S/S0", "setting": "HRP; HRP 1 ng/ml", "value": 26.6}, {"measurement": "RLU", "setting": "HRP; HRP 1 ng/ml", "value": "6,712 RLU and 6,844 RLU and 7,408 RLU"}, {"measurement": "Mean RLU", "setting": "HRP; HRP 10 ng/ml", "value": "309,873 RLU"}, {"measurement": "S/S0", "setting": "HRP; HRP 10 ng/ml", "value": 1178.2}, {"measurement": "RLU", "setting": "HRP; HRP 10 ng/ml", "value": "310,600 RLU and 278,320 RLU and 340,700 RLU"}, {"measurement": "Mean RLU", "setting": "HRP; HRP 100 ng/ml", "value": "2,426,677 RLU"}, {"measurement": "S/S0", "setting": "HRP; HRP 100 ng/ml", "value": 9226.9}, {"measurement": "RLU", "setting": "HRP; HRP 100 ng/ml", "value": "2,306,036 RLU and 2,477,760 RLU and 2,496,236 RLU"}, {"measurement": "Mean RLU", "setting": "HRP; HRP 250 ng/ml", "value": "2,533,168 RLU"}, {"measurement": "S/S0", "setting": "HRP; HRP 250 ng/ml", "value": 9631.8}, {"measurement": "RLU", "setting": "HRP; HRP 250 ng/ml", "value": "2,535,712 RLU and 2,523,068 RLU and 2,540,724 RLU"}]}]}
